Assay results as given in paper PMC12136991 (ACS chemical neuroscience, 2025).
≈ marks a conversion by molar mass, not a printed value. Entries after “also recorded” stand apart in the source; their conditions may differ.

Tests used:
[1] = molecular target: human μ-opioid receptor (OPRM1) (Homo sapiens, UniProt P35372); assay: cell-based
[2] = molecular target: T1, mouse mu opioid receptor (mMOR-CHO) (Mus musculus, UniProt P42866); assay: Competition radioligand binding assay, [3H]naloxone, mMOR-CHO membranes
[3] = molecular target: T1, mouse mu opioid receptor (mMOR-CHO); assay: [35S]GTPγS functional assay, mMOR-CHO membranes; type: biochemical
[4] = molecular target: T2, KOR (mKOR-CHO) (Mus musculus, UniProt P33534); assay: Competition radioligand binding assay, mKOR-CHO membranes
[5] = molecular target: T2, KOR (mKOR-CHO); assay: [35S]GTPγS functional assay, mKOR-CHO membranes; type: biochemical; conditions: KOR-mediated [35S]GTPγS binding, up to 30 μM
[6] = molecular target: T3, DOR (hDOR-CHO) (Homo sapiens, UniProt P41143); assay: Competition radioligand binding assay, hDOR-CHO membranes; conditions: DOR Receptor binding Ki, CHO cell membranes expressing cloned DOR
[7] = molecular target: T3, DOR (hDOR-CHO); assay: [35S]GTPγS functional assay, hDOR-CHO membranes; type: biochemical
[8] = Kinetic solubility assay; type: physicochemical; conditions: kinetic from dmso stock
[9] = Multi-point microsome stability assay, human; type: in vitro ADME; conditions: both, human microsomal fractions, pH 7.4
[10] = Multi-point microsome stability assay, mouse; type: in vitro ADME; conditions: male, CD-1, mouse, mouse microsomal fractions, pH 7.4
[11] = Multi-point microsome stability assay, rat; type: in vitro ADME; conditions: male, Sprague Dawley, rat microsomal fractions, pH 7.4
[12] = Multi-point cytosol stability assay, human; type: in vitro ADME; conditions: human cytosol fractions, pH 7.4
[13] = Multi-point cytosol stability assay, mouse; type: in vitro ADME; conditions: mouse cytosol fractions, pH 7.4
[14] = Multi-point cytosol stability assay, rat; type: in vitro ADME; conditions: rat cytosol fractions, pH 7.4
[15] = tested on: mice; assay: Assay of pain-depressed locomotion in mice; type: in vivo, mouse
[16] = molecular target: T4, human δ-opioid receptor (OPRD1) (Homo sapiens, UniProt P41143); assay: Forskolin-induced cAMP accumulation assay, DOR agonist mode
[17] = molecular target: T5, human κ-opioid receptor (OPRK1) (Homo sapiens, UniProt P41145); assay: Forskolin-induced cAMP accumulation assay, KOR agonist mode
[18] = molecular target: T4, human δ-opioid receptor (OPRD1); assay: Forskolin-induced cAMP accumulation assay, DOR antagonist mode
[19] = molecular target: T5, human κ-opioid receptor (OPRK1); assay: Forskolin-induced cAMP accumulation assay, KOR antagonist mode
[20] = SC 30 min before 15 min session, significant increase, 12 mice per dose

C=C[C@H]1[C@H]2CCC[C@]1(c1cccc(C(N)=O)c1)CCN2CCc1ccccc1 [compound 5, 3-((1R,5S,9R)-2-Phenethyl-9-vinyl-2-azabicyclo[3.3.1]nonan-5-yl)benzamide]
EC50 [1]: 5.28 nM
Emax ([1]; OPRM1, read-out: MOR Agonist %Emax ± SEM): 75.1%
Ki [2]: 1.24 ± 0.17 nM
EC50 [3]: 23.3 ± 6.45 nM
Emax ([3]; read-out: GTPγS % Emax of (DAMGO), MOR, % of maximal DAMGO stimulation): 15.4 ± 1.8%
Ki [4]: 48.7 ± 7.06 nM
KOR GTPγS % Emax of (DAMGO) [5]: did not stimulate; also recorded: No Stim
Ki [6]: 237 nM
EC50 [7]: 1460 ± 594 nM
Emax ([7]; read-out: DOR GTPγS % Emax of (DAMGO)): -6.98 ± 1.21%
solubility kinetic [8]: 5.1 µg/mL (≈ 13.6 µM)
half-life at 1 μM [9]: 40.4 min
half-life at 1 μM [10]: 16.7 min
half-life at 1 μM [11]: 3.2 min
half-life at 1 μM [12]: > 120 min
half-life at 1 μM [13]: > 120 min
half-life at 1 μM [14]: > 120 min
Crosses, drug administered alone: dose different from Vehicle [15, 20]: 18 mg/kg
Movement, drug administered alone: doses different from Vehicle [15, 20]: 10 to 18 mg/kg
antinociceptive attenuation of IP acid-induced depression of Crosses: dose different from Vehicle+IP acid ([15]; SC pretreatment to IP 0.56% lactic acid): 18 mg/kg
EC50 [16]: 6.01 ± 4.97 nM
Emax ([16]; read-out: DOR Agonist %Emax ± SEM): 25.2%
EC50 [17]: > 10000 nM
IC50 [18]: 498 ± 208 nM
DOR Antagonist %Imax ± SEM ([18]; versus EC50 of SNC80, normalized to naltrexone): 117.6 ± 8.0%
IC50 [19]: > 10000 nM
